Values quoted from earlier work as cited in US9352019B2, “Using heat shock proteins to improve the therapeutic benefit of a non-vaccine treatment modality” (University of Connecticut Health Center, priority 2002, dated 2016).
Structures can show the parent of a compound that is named as a salt.

Tested on: CML
Conditions: Gleevec alone; Druker et al., 2002

Cc1ccc(NC(=O)c2ccc(CN3CCN(C)CC3)cc2)cc1Nc1nccc(-c2cccnc2)n1 [Gleevec™, imatinib mesylate]
patients achieving responses using these same criteria: less than 10% of patients
